Patent US20230028880A1, “CD38-BINDING AGENTS AND USES THEREOF” (Biohaven Therapeutics Ltd., priority 2019, published 2023)
pEC50, pIC50: −log10 of the molar value. Where “and” joins values, the source holds several entries; their conditions need not be identical. Identical values can stand only once.

Experiments:
Assay type in all cases: cell-based
Daudi cells [1] = assay: KILR ADCC killing assay: KILR-transfected Daudi cells with purified NK cells (% dead cells); conditions: for % dead cells, KILR ADCC killing assay: KILR Daudi cells with purified NK cells, duplicate columns
From the text: In some embodiments, CD38-ABT ARMs bind to target cells and antibodies, e.g., human antibodies. In some embodiments, such ternary structures present antibodies to effector cells such as NK cell and bind to, e.g., CD16a receptors. […] Daudi cells were transfected with KILR reporter construct (DiscoverX #97-0002). An attenuated lentivirus was designed to deliver a Moloney Murine Leukemia Virus (MMLV) engineered to drive expression of a housekeeping gene tagged with Enhanced ProLabel (ePL) a beta-Galactosidase (beta-gal) reporter fragment. This construct was designed to remain inside cells. Death leads to the release of the KILR reporter protein into the medium. Detection reagent (DiscoverX #97-0001L) contained the complementing beta-gal reporter fragment enzyme acceptor (EA). The two components combined to generate a chemiluminescent signal.

[2] = test system: Effector cells (ADCC reporter cells) with Daudi cells; assay: ADCC reporter assay: Daudi cells, IVIG and ADCC reporter effector cells (luciferase, RLU); conditions: IVIG; for pEC50: ADCC reporter assay; for Luminescence, ADCC reporter assay: 18 h, duplicate columns
Experimental: Daudi (ATCC CCL-213) cells were resuspended in Opti-MEM (Thermo Fisher Scientific #31985070), counted (Life Technologies Countless II cell counter) and plated (5,000 cells in 25 uL/well; Corning plates: 3917). Compounds w diluted in DMSO (MP 191418) to 1000× the starting concentration used in the assay into a 96 well polypropylene plate (Corning 3357). They were then serially diluted in ½ log increments to generate 8 concentrations in DMSO (assay dependent). These DMSO stocks were then step diluted 1/250 into Opti-MEM. Step diluted compound range was then added into the polypropylene assay plate 25 uL/well. The human antibody solution (Grifols IVIG Fleogogamma #61953-0005-2) was diluted to 40 ug/mL and added 25 uL/well. Effector cells (ADCC reporter cells—Promega kit: G7018) were added 37,500 in 25 uL/well. The assay was then incubated 18 h at 37° C. Following the induction period, the plate was equilibrated to 25° C. followed the addition of the luciferase substrate (75 uL/well, 1 vial in 10 mL of Bio-Glo assay buffer, Promega kit: G7018). The luminescence was measured (Biotek Synergy H1 microplate reader).

Daudi cells [3] = assay: Ternary binding assay: recruitment of PE-labeled human IgG1k to Daudi cells (flow cytometry, MFI); conditions: for MFI, recruitment of PE-labeled human IgG1k to Daudi cells: duplicate columns
Experimental: Various technologies can be utilized to assess and/or characterize recruitment of antibodies to target cells, e.g., cancer cells. One such assay is a ternary binding assay. An exemplary protocol is described herein. Compounds were diluted in DMSO (MP 191418) to 1000× the starting concentration used in the assay into a 96 well polypropylene plate (Corning 3357). They were then serially diluted in ½ log increments to generate 8-12 concentrations in DMSO (assay dependent). These DMSO stocks were then step diluted 1/100 into PBS (VWR Cat. #20012043). Step diluted compound range was then added into the polypropylene assay plate 1/10 the volume of the assay volume. Daudi (ATCC CCL-213), a non-adherent cell line, were counted and centrifuged and resuspended at a concentration of 100,000 cells per 90 ul in Flow buffer: 1% BSA (American Bio AB01088-00100); 0.5 mM EDTA (VWR 45001-122); PBS (VWR Cat. #20012043) with 11.1 ug/mL human IgG1k Phycoerythrin labeled (SouthernBiotech #0151K-09 PE). The cells were then added into the polypropylene plate with the step diluted compounds and incubated at 37° C. for 30 min. At the end of the incubation, the cells were centrifuged and washed 2× with How buffer containing 0.5% Tween 20 (BP337-500). Samples were analyzed on a BD FacsCelesta. Mean fluorescence was analyzed using Graphpad Prism and curves were fit using log(inhibitor) vs. response—Variable slope (four parameters).

Row | Molecule | % dead cells, KILR ADCC killing assay (Daudi cells [1]; compound 1 nM) | % dead cells, KILR ADCC killing assay (Daudi cells [1]; compound 3 nM) | % dead cells, KILR ADCC killing assay (Daudi cells [1]; compound 100 nM) | % dead cells, KILR ADCC killing assay (Daudi cells [1]; compound 300 nM) | % dead cells, KILR ADCC killing assay (Daudi cells [1]; compound 1000 nM) | pEC50 [2] | Luminescence, ADCC reporter assay ([2]; compound 1 nM) | Luminescence, ADCC reporter assay ([2]; compound 3 nM) | Luminescence, ADCC reporter assay ([2]; compound 10 nM) | Luminescence, ADCC reporter assay ([2]; compound 30 nM) | Luminescence, ADCC reporter assay ([2]; compound 100 nM) | Luminescence, ADCC reporter assay ([2]; compound 300 nM) | Luminescence, ADCC reporter assay ([2]; compound 1000 nM) | MFI, recruitment of PE-labeled human IgG1k to Daudi cells (Daudi cells [3]; compound 0.03 nM) | MFI, recruitment of PE-labeled human IgG1k to Daudi cells (Daudi cells [3]; compound 0.1 nM) | MFI, recruitment of PE-labeled human IgG1k to Daudi cells (Daudi cells [3]; compound 0.3 nM) | MFI, recruitment of PE-labeled human IgG1k to Daudi cells (Daudi cells [3]; compound 1 nM) | MFI, recruitment of PE-labeled human IgG1k to Daudi cells (Daudi cells [3]; compound 3 nM) | MFI, recruitment of PE-labeled human IgG1k to Daudi cells (Daudi cells [3]; compound 10 nM) | MFI, recruitment of PE-labeled human IgG1k to Daudi cells (Daudi cells [3]; compound 30 nM) | further results
1 | CCCCC[C@@H]1NC(=O)[C@H](CCCNC(=N)N)NC(=O)[C@H](C)NC(=O)CSC[C@@H](C(=O)NCCCC(=O)N[C@@H](CC(=O)O)C(=O)N[C@H]2CSSC[C@@H](C(=O)N[C@H](C(N)=O)[C@@H](C)O)NC(=O)[C@H](Cc3c[nH]c4ccccc34)NC(=O)[C@H](C(C)C)NC(=O)[C@H](CC(C)C)NC(=O)[C@H](CCC(=O)O)NC(=O)CNC(=O)[C@H](CC(C)C)NC(=O)[C@H](Cc3c[nH]cn3)NC(=O)[C@H](Cc3c[nH]c4ccccc34)NC(=O)[C@H](C)NC2=O)NC(=O)[C@H](CC(=O)O)NC(=O)[C@H](CCCCC)NC(=O)[C@H](Cc2ccc(-c3ccccc3)cc2)NC(=O)[C@H](CC(C)C)NC(=O)[C@H](C(C)C)NC(=O)CNC(=O)[C@H](CC(=O)O)NC(=O)[C@H](Cc2c[nH]cn2)NC(=O)[C@H](Cc2ccc(O)cc2)NC1=O [I-30] | 14.3% and 14.7% | 14.7% and 15.7% | 17.1% and 18.1% | 19% and 20.6% | 19.2% and 20% | 7.92 | 4174 RLU and 4217 RLU | 4269 RLU and 4452 RLU | 11442 RLU and 11535 RLU | 17189 RLU and 17066 RLU | 20600 RLU and 19749 RLU | 22074 RLU and 21976 RLU | 22085 RLU and 21589 RLU | – | – | – | – | – | – | – | % dead cells, KILR ADCC killing assay (Daudi cells [1]; compound 10 nM): 14.1%; Luminescence, ADCC reporter assay ([2]; compound 3000 nM): 19456 RLU and 17760 RLU
2 | CCCCC[C@@H]1NC(=O)[C@H](CCCNC(=N)N)NC(=O)[C@H](C)NC(=O)CSC[C@@H](C(=O)NCCOCCOCCOCCOCCOCCOCCOCCOCCC(=O)NCCOCCOCCOCCOCCOCCOCCOCCOCCC(=O)N[C@@H](CC(=O)O)C(=O)N[C@H]2CSSC[C@@H](C(=O)N[C@H](C(=O)O)[C@@H](C)O)NC(=O)[C@H](Cc3c[nH]c4ccccc34)NC(=O)[C@H](C(C)C)NC(=O)[C@H](CC(C)C)NC(=O)[C@H](CCC(=O)O)NC(=O)CNC(=O)[C@H](CC(C)C)NC(=O)[C@H](Cc3c[nH]cn3)NC(=O)[C@H](Cc3c[nH]c4ccccc34)NC(=O)[C@H](C)NC2=O)NC(=O)[C@H](CC(=O)O)NC(=O)[C@H](CCCCC)NC(=O)[C@H](Cc2ccc(-c3ccccc3)cc2)NC(=O)[C@H](CC(C)C)NC(=O)[C@H](C(C)C)NC(=O)[C@H](CCC(N)=O)NC(=O)[C@H](CC(=O)O)NC(=O)[C@H](Cc2c[nH]cn2)NC(=O)[C@H](Cc2ccc(O)cc2)NC1=O [I-41] | – | – | – | – | – | – | 6793 RLU and 6656 RLU | 15011 RLU and 15516 RLU | 26140 RLU and 28413 RLU | 35410 RLU and 36310 RLU | 40904 RLU and 39344 RLU | 38409 RLU and 39619 RLU | 29516 RLU and 26828 RLU | 4489 and 2739 | 7612 and 4790 | 3076 and 2422 | 5751 and 3841 | 5283 and 6064 | 9033 and 5065 | 10036 and 10734 | MFI, recruitment of PE-labeled human IgG1k to Daudi cells (Daudi cells [3]; compound 100 nM): 19188 and 14043; MFI, recruitment of PE-labeled human IgG1k to Daudi cells (Daudi cells [3]; compound 300 nM): 23096 and 16482; MFI, recruitment of PE-labeled human IgG1k to Daudi cells (Daudi cells [3]; compound 1000 nM): 13982 and 11893; MFI, recruitment of PE-labeled human IgG1k to Daudi cells (Daudi cells [3]; compound 3000 nM): 18339 and 21903; Luminescence, ADCC reporter assay ([2]; compound 0.3 nM): 4814 RLU and 4964 RLU
3 | CCCCC[C@@H]1NC(=O)[C@H](CCCNC(=N)N)NC(=O)[C@H](C)NC(=O)CSC[C@@H](C(=O)NCCOCCOCCOCCOCCOCCOCCOCCOCCC(=O)NCCOCCOCCOCCOCCOCCOCCOCCOCCC(=O)N[C@@H](CC(=O)O)C(=O)N[C@H]2CSSC[C@@H](C(=O)N[C@H](C(=O)O)[C@@H](C)O)NC(=O)[C@H](Cc3c[nH]c4ccccc34)NC(=O)[C@H](C(C)C)NC(=O)[C@H](CC(C)C)NC(=O)[C@H](CCC(=O)O)NC(=O)CNC(=O)[C@H](CC(C)C)NC(=O)[C@H](Cc3c[nH]cn3)NC(=O)[C@H](Cc3c[nH]c4ccccc34)NC(=O)[C@H](C)NC2=O)NC(=O)[C@H](CC(=O)O)NC(=O)[C@H](CCCCC)NC(=O)[C@H](Cc2ccc(-c3ccccc3)cc2)NC(=O)[C@H](CC(C)C)NC(=O)[C@H](C(C)C)NC(=O)[C@H](CC(N)=O)NC(=O)[C@H](CC(=O)O)NC(=O)[C@H](Cc2c[nH]cn2)NC(=O)[C@H](Cc2ccc(O)cc2)NC1=O [I-42] | – | – | – | – | – | 8.85 | 13795 RLU and 13686 RLU | 20721 RLU and 20652 RLU | 32317 RLU and 32373 RLU | 36909 RLU and 40202 RLU | 40344 RLU and 39296 RLU | 39826 RLU and 37835 RLU | 27516 RLU and 28425 RLU | 7077 and 5990 | 5737 and 4704 | 3879 and 4284 | 4981 and 6900 | 6000 and 5101 | 6189 and 11302 | 9700 and 15077 | MFI, recruitment of PE-labeled human IgG1k to Daudi cells (Daudi cells [3]; compound 100 nM): 16690 and 17157; MFI, recruitment of PE-labeled human IgG1k to Daudi cells (Daudi cells [3]; compound 300 nM): 14190 and 18622; MFI, recruitment of PE-labeled human IgG1k to Daudi cells (Daudi cells [3]; compound 1000 nM): 20476 and 15023; MFI, recruitment of PE-labeled human IgG1k to Daudi cells (Daudi cells [3]; compound 3000 nM): 13519 and 15909; Luminescence, ADCC reporter assay ([2]; compound 0.3 nM): 4468 RLU and 4661 RLU
4 | I-38: "A mixture of compound 6 ... compound 2 ... DIEA ... to get compound I-38 (Q1 ...) and compound I-38 (Q2 ...)" (ARXYHDGVLXXDCXXXKXDCAWHLGELVWCT; not fully specified; D-residues; cyclised or stapled) | 10.4% and 10.9% | 10.2% and 10.7% | 10.9% | 10.9% and 11.1% | 11.4% and 11.7% | – | – | – | – | – | – | – | – | – | – | – | – | – | – | – | pIC50 (Daudi cells [3]; ternary binding assay, Daudi cells, human IgG1k PE): < 5.52; pEC50 (Daudi cells [1]; KILR ADCC killing assay, Daudi cells with purified NK cells): < 5.52; % dead cells, KILR ADCC killing assay (Daudi cells [1]; compound 30 nM): 10.6% and 11.6%; % dead cells, KILR ADCC killing assay (Daudi cells [1]; compound 3000 nM): 10.3% and 10.8%
